Measured values published in the supplement of paper PMC11061612.

What was measured:
[1] = system: NCI-H841 (Small Cell Lung Carcinoma); assay: Bliss excess, mean over the matrix (fraction); higher = more synergy
Outline: (§1)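 After 24 hours at 37°C and 5% CO2 in 1536-well plates, cells in DMEM/F12 or RPMI plus 10% FBS received two-drug dose matrices for 72 hours. Viability came from CellTiter-Glo 2.0 luminescence and was scaled as inhibition, anchored at 0 by vehicle wells and at 1 by blank wells. Combination Emax is taken as the second-highest inhibition in the matrix, and Bliss excess as the observed combination effect less EA + EB − EA·EB, with EA and EB the single-agent effects.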

MKN1 (Gastric Carcinoma) [2] = assay: as above
Outline: as §1

[3] = system: NCI-H841 (Small Cell Lung Carcinoma); assay: combination Emax (second highest fraction inhibited in the dose matrix, 72 h); higher = more inhibition; extreme values may be limits of the assay
Outline: as §1

[4] = system: MHH-ES-1 (Ewing's Sarcoma); assay: as above
Outline: as §1

[5] = system: KYSE-220 (Esophageal Squamous Cell Carcinoma); assay: as above
Outline: as §1

769-P (Kidney Carcinoma) = assay: as above
Outline: as §1

[6] = system: NCI-H2087 (Lung Adenocarcinoma); assay: as above
Outline: as §1

[7] = system: A2780 (Ovarian Carcinoma); assay: as above
Outline: as §1

MKN1 (Gastric Carcinoma) [8] = assay: as above
Outline: as §1
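Wherever Bliss excess, mean over the matrix is given: after 72 h of two-drug dosing.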

Compound	Bliss excess [1]	Bliss excess (MKN1 (Gastric Carcinoma) [2])	combination Emax [3]	combination Emax [4]	combination Emax [5]	combination Emax (769-P (Kidney Carcinoma))	combination Emax [6]	combination Emax [7]	combination Emax (MKN1 (Gastric Carcinoma) [8])
C=CCn1c(=O)c2cnc(Nc3ccc(N4CCN(C)CC4)cc3)nc2n1-c1cccc(C(C)(C)O)n1 [AZD1775] + CCc1c2c(nc3ccc(O)cc13)-c1cc3c(c(=O)n1C2)COC(=O)[C@]3(O)CC [SN-38] (first compound max 1 µM, partner max 0.3 µM)	-0.0421	-0.0056	0.66	0.985	0.909	0.881	0.941	0.94	0.869
C=CCn1c(=O)c2cnc(Nc3ccc(N4CCN(C)CC4)cc3)nc2n1-c1cccc(C(C)(C)O)n1 [AZD1775] + Nc1ccn([C@@H]2O[C@H](CO)[C@@H](O)C2(F)F)c(=O)n1 [Gemcitabine] (first compound max 1 µM, partner max 0.3 µM)	0.0425	0.0171	0.726	0.983	0.793	0.868	0.6	0.963	0.927
CN(CCO)CC[C@H](CSc1ccccc1)Nc1ccc(S(=O)(=O)NC(=O)c2ccc(N3CCC([C@@H](O)c4ccccc4-c4ccc(Cl)cc4)CC3)cc2)cc1S(=O)(=O)C(F)(F)F [AZD4320] + CS(=O)(=O)CCNCc1ccc(-c2ccc3ncnc(Nc4ccc(OCc5cccc(F)c5)c(Cl)c4)c3c2)o1 [Lapatinib] (first compound max 1 µM, 7x7, partner max 10 µM)	-0.0037	0.046	0.237	0.973	0.967	0.989	0.541	0.492	0.888
Cc1c2c(nn1C)CSCc1cc(n(C)n1)CSc1cc(c3ccccc3c1)OCCCc1c(C(=O)O)n(C)c3c-2c(Cl)ccc13 [AZD5991] + CC(=O)O[C@H]1C(=O)[C@@]2(C)[C@H]([C@H](OC(=O)c3ccccc3)[C@]3(O)C[C@H](OC(=O)[C@H](O)[C@@H](NC(=O)c4ccccc4)c4ccccc4)C(C)=C1C3(C)C)[C@]1(OC(C)=O)CO[C@@H]1C[C@@H]2O [Paclitaxel] (first compound max 1 µM, 7x7, partner max 3 µM)	0.0663	-0.103	0.973	0.965	0.745	0.789	0.554	1	0.824
Cc1c2c(nn1C)CSCc1cc(n(C)n1)CSc1cc(c3ccccc3c1)OCCCc1c(C(=O)O)n(C)c3c-2c(Cl)ccc13 [AZD5991] + CS(=O)(=O)CCNCc1ccc(-c2ccc3ncnc(Nc4ccc(OCc5cccc(F)c5)c(Cl)c4)c3c2)o1 [Lapatinib] (first compound max 1 µM, 7x7, partner max 10 µM)	-0.0161	-0.0016	0.3	0.58	0.933	0.917	0.275	0.933	0.53
Cc1c2c(nn1C)CSCc1cc(n(C)n1)CSc1cc(c3ccccc3c1)OCCCc1c(C(=O)O)n(C)c3c-2c(Cl)ccc13 [AZD5991] + Nc1ccn([C@@H]2O[C@H](CO)[C@@H](O)C2(F)F)c(=O)n1 [Gemcitabine] (first compound max 1 µM, 7x7, partner max 0.3 µM)	0.0135	-0.0205	0.567	0.935	0.724	0.701	0.546	1	0.624
C[C@@H]1COCCN1c1cc(C2([S@](C)(=N)=O)CC2)nc(-c2ccnc3[nH]ccc23)n1 [AZD6738] + C1CC(C1)(C(=O)[O-])C(=O)[O-].N.N.[Pt+2] [Carboplatin] (first compound max 10 µM, 7x7, partner max 10 µM)	-0.0587	-0.0424	0.503	0.51	0.827	0.878	0.564	0.81	0.85
C[C@@H]1COCCN1c1cc(C2([S@](C)(=N)=O)CC2)nc(-c2ccnc3[nH]ccc23)n1 [AZD6738] + Nc1ccn([C@@H]2O[C@H](CO)[C@@H](O)C2(F)F)c(=O)n1 [Gemcitabine] (first compound max 10 µM, 7x7, partner max 0.3 µM)	0.0975	0.0369	0.829	0.995	0.857	0.865	0.699	0.95	0.951
C[C@@H](Nc1cc(F)cc(F)c1)c1cc(C(=O)N(C)C)cc2c(=O)cc(N3CCOCC3)oc12 [AZD8186] + C1CN(CCC1(C(=O)N[C@@H](CCO)C2=CC=C(C=C2)Cl)N)C3=NC=NC4=C3C=CN4 [AZD5363] (first compound max 10 µM, 7x7, partner max 10 µM)	-0.025	-0.0304	0.293	0.358	0.445	0.338	0.195	0.784	0.491
C[C@@H](Nc1cc(F)cc(F)c1)c1cc(C(=O)N(C)C)cc2c(=O)cc(N3CCOCC3)oc12 [AZD8186] + CC(=O)c1c(C)c2cnc(Nc3ccc(N4CCNCC4)cn3)nc2n(C2CCCC2)c1=O [Palbociclib] (first compound max 10 µM, 7x7, partner max 10 µM)	0.0118	0.0017	0.266	0.602	0.38	0.755	0.24	0.835	0.674
C[C@@H](Oc1cc(-c2cnn(C3CCNCC3)c2)cnc1N)c1c(Cl)ccc(F)c1Cl [Crizotinib] + CC1=C(C(=CC=C1)Cl)NC(=O)C2=CN=C(S2)NC3=CC(=NC(=N3)C)N4CCN(CC4)CCO [Dasatinib] (first compound max 10 µM, 7x7, partner max 2 µM)	-0.0089	0.0586	0.301	0.77	0.968	0.961	0.39	0.882	0.866
C[C@@H](Oc1cc(-c2cnn(C3CCNCC3)c2)cnc1N)c1c(Cl)ccc(F)c1Cl [Crizotinib] + Cn1cnc2c(F)c(Nc3ccc(Br)cc3Cl)c(C(=O)NOCCO)cc21 [Selumetinib] (first compound max 10 µM, 7x7, partner max 10 µM)	-0.0528	0.0001	0.202	0.889	0.973	0.875	0.587	0.922	0.561
CS(=O)(=O)CCNCc1ccc(-c2ccc3ncnc(Nc4ccc(OCc5cccc(F)c5)c(Cl)c4)c3c2)o1 [Lapatinib] + Cn1cnc2c(F)c(Nc3ccc(Br)cc3Cl)c(C(=O)NOCCO)cc21 [Selumetinib] (first compound max 10 µM, 7x7, partner max 10 µM)	0.0251	-0.002	0.303	0.401	0.954	0.945	0.575	0.684	0.596
O=C(c1cc(Cc2n[nH]c(=O)c3ccccc23)ccc1F)N1CCN(C(=O)C2CC2)CC1 [Olaparib] + CC1(C)CCC(CN2CCN(c3ccc(C(=O)NS(=O)(=O)c4ccc(NCC5CCOCC5)c([N+](=O)[O-])c4)c(Oc4cnc5[nH]ccc5c4)c3)CC2)=C(c2ccc(Cl)cc2)C1 [Venetoclax] (first compound max 10 µM, 7x7, partner max 1 µM)	-0.057	-0.0437	0.0548	0.86	0.155	0.284	0.176	0.462	0.122
O=C(c1cc(Cc2n[nH]c(=O)c3ccccc23)ccc1F)N1CCN(C(=O)C2CC2)CC1 [Olaparib] + CN(CC[C@H](CSC1=CC=CC=C1)NC2=C(C=C(C=C2)S(=O)(=O)NC(=O)C3=CC=C(C=C3)N4CCC(CC4)[C@H](C5=CC=CC=C5C6=CC=C(C=C6)Cl)O)S(=O)(=O)C(F)(F)F)CCO [AZD4320] (first compound max 10 µM, 7x7, partner max 1 µM)	-0.0526	-0.0238	0.0513	0.952	0.267	0.678	0.413	0.511	0.165
O=C(c1cc(Cc2n[nH]c(=O)c3ccccc23)ccc1F)N1CCN(C(=O)C2CC2)CC1 [Olaparib] + COc1nnc2ccc(N3CCC(c4ccc(OCCN5CCN(C)C(=O)[C@H]5C)cc4)CC3)nn12 [AZD5153] (first compound max 10 µM, 7x7, partner max 1 µM)	-0.0593	-0.0577	0.236	0.905	0.558	0.709	0.39	0.774	0.631
O=C(c1cc(Cc2n[nH]c(=O)c3ccccc23)ccc1F)N1CCN(C(=O)C2CC2)CC1 [Olaparib] + Cc1c2c(nn1C)CSCc1cc(n(C)n1)CSc1cc(c3ccccc3c1)OCCCc1c(C(=O)O)n(C)c3c-2c(Cl)ccc13 [AZD5991] (first compound max 10 µM, 7x7, partner max 1 µM)	-0.0522	-0.0332	0.126	0.879	0.166	0.261	0.13	0.924	0.118
Cc1nc(-c2cn3c(n2)-c2ccc(-c4cnn(C(C)(C)C(N)=O)c4)cc2OCC3)n(C(C)C)n1 [Taselisib] + O=C(Nc1ccc2[nH]nc(-c3ccncc3)c2c1)[C@@H]1CCN(CC(=O)N2CCN(c3ccc(-c4ncccn4)cc3)CC2)C1 [SCH772984] (first compound max 10 µM, 7x7, partner max 5 µM)	0.0606	0.0698	0.439	0.609	0.905	0.809	0.71	0.976	0.838
CC1(C)CCC(CN2CCN(c3ccc(C(=O)NS(=O)(=O)c4ccc(NCC5CCOCC5)c([N+](=O)[O-])c4)c(Oc4cnc5[nH]ccc5c4)c3)CC2)=C(c2ccc(Cl)cc2)C1 [Venetoclax] + CS(=O)(=O)CCNCc1ccc(-c2ccc3ncnc(Nc4ccc(OCc5cccc(F)c5)c(Cl)c4)c3c2)o1 [Lapatinib] (first compound max 1 µM, 7x7, partner max 10 µM)	-0.0506	-0.0194	0.13	0.371	0.917	0.909	0.0976	0.478	0.433
